Source: US10918642B2, “N-(substituted-phenyl)-sulfonamide derivatives as kinase inhibitors” (Nerviano Medical Sciences S.R.L., priority 2016, dated 2021)

target: PERK recombinant enzyme (cytoplasmic domain corresponding to residues 540-1115) (Homo sapiens (Human), UniProt Q9NZJ5); test: PERK enzyme assay, Method 1: ADP-Glo Kinase Assay (quantification of ADP formed); type: biochemical; details: 52 microM ATP, 8 nM PERK, 300 microM eIF2alpha peptide substrate, 60 minutes at room temperature
Description: The biochemical activity of compounds was determined by incubation with PERK recombinant enzyme (cytoplasmic domain corresponding to residues 540-1115) and elF2alpha peptide substrate (Aminoacid sequence: LLSELSRRRIRSINK—SEQ ID Nr: 1; purchased from American Peptide Company, product #341923). This was followed by:
Method 1: Quantification of the ADP Tormed from the Kinase Reaction by ADP-Glo™ Kinase Assay (Promega Cat. 9102). Utra Pure ATP was Included into ADP-Glo™ Kinase Assay kit.
Compounds were 3-fold serially diluted in order to obtain from 3.333 to 0.000169 microM final concentration, then incubated for 60 minutes at room temperature in the presence of ATP, substrate and enzyme in a final volume of 15 microL of kinase buffer in 384-well plates (Perkin Elmer cat. #6007290).
The final concentration of the different reagents is 52 microM ATP, 8 nM PERK, 300 microM substrate, 50 mM Hepes pH 7.5, 3 mM MgCl2, 1 mM DTT, 3 microM Na3VO4, 0.2 mg/ml BSA, 1% DMSO.
After 60 minutes, an equal volume (15 microL) of ADP-Glo™ Reagent was added to each well to terminate the kinase reaction and deplete the remaining ATP. After 40 minutes, 30 microL of Kinase Detection Reagent is added, which simultaneously converts ADP to ATP and allows the newly synthesized ATP to be measured using a coupled luciferase/luciferin reaction. After further 40 minutes luminescence was read by ViewLux Instrument (Perkin Elmer). The data are analyzed by GraphPad Prism software which provides sigmoidal fittings of the curves for IC50 determination using a 4 parameter logistic equation: y=bottom+(top−bottom)/(1+10^((log IC50−x)*slope))
where x is the logarithm of the inhibitor concentration, y is the response; y starts at bottom and goes to top with a sigmoid shape.

Sequence of PERK recombinant enzyme (cytoplasmic domain corresponding to residues 540-1115) (Q9NZJ5 540-1115): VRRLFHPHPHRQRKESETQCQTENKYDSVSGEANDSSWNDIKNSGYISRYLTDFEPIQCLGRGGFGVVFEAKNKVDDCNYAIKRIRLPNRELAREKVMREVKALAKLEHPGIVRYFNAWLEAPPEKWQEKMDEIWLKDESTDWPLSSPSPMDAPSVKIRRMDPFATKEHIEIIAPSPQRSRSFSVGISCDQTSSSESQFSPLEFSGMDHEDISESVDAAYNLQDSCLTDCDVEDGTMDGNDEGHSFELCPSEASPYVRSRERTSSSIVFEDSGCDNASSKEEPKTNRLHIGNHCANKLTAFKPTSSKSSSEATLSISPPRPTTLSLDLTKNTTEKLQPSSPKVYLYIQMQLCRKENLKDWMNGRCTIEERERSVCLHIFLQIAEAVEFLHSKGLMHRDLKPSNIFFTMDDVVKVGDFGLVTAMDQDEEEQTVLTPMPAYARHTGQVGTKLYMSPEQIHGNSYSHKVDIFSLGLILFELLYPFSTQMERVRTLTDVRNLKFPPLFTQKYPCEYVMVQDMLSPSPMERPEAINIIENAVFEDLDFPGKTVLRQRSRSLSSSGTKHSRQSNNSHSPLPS

| Compound | IC50 [nM] | pIC50 |
| --- | --- | --- |
| COc1ccc(S(=O)(=O)Nc2cccc(-c3cn(C4CCOCC4)c4ncnc(N)c34)c2F)cc1Cl [cmpd 37, N-{3-[4-Amino-7-(tetrahydro-pyran-4-yl)-7H-pyrrolo[2,3-d]pyrimidin-5-yl]-2-fluoro-phenyl}-3-chloro-4-methoxy-benzenesulfonamide] | 15.8 to 50.1 | – |
| COc1ccc(S(=O)(=O)Nc2cccc(-c3nn(C)c4ncnc(N)c34)c2F)cc1C [cmpd 34, N-[3-(4-Amino-1-methyl-1H-pyrazolo[3,4-d]pyrimidin-3-yl)-2-fluoro-phenyl]-4-methoxy-3-methyl-benzenesulfonamide] | 15.8 to 50.1 | – |
| Cn1cc(-c2cccc(NS(=O)(=O)c3cc(F)ccc3F)c2F)c2c(N)ncnc21 [cmpd 21, N-[3-(4-Amino-7-methyl-7H-pyrrolo[2,3-d]pyrimidin-5-yl)-2-fluoro-phenyl]-2,5-difluoro-benzenesulfonamide] | – | C (pIC50 < 6.8) |
| CCOc1ccc(S(=O)(=O)Nc2cccc(-c3cn(C)c4ncnc(N)c34)c2F)cc1C [cmpd 28, N-[3-(4-Amino-7-methyl-7H-pyrrolo[2,3-d]pyrimidin-5-yl)-2-fluoro-phenyl]-4-ethoxy-3-methyl-benzenesulfonamide] | 15.8 to 50.1 | – |
| COc1ccc(S(=O)(=O)Nc2cccc(-c3cn(C(C)C)c4ncnc(N)c34)c2F)cc1Cl [cmpd 2, N-[3-(4-Amino-7-isopropyl-7H-pyrrolo[2,3-d]pyrimidin-5-yl)-2-fluoro-phenyl]-3-chloro-4-methoxy-benzenesulfonamide] | – | AA (7.8 ≤ pIC50) |
| COc1cc(F)c(S(=O)(=O)Nc2cccc(-c3cn(C4CCOCC4)c4ncnc(N)c34)c2F)cc1Cl [cmpd 76, N-{3-[4-Amino-7-(tetrahydro-pyran-4-yl)-7H-pyrrolo[2,3-d]pyrimidin-5-yl]-2-fluoro-phenyl}-5-chloro-2-fluoro-4-methoxy-benzenesulfonamide] | 50.1 to 158 | – |
| COc1ccc(S(=O)(=O)Nc2cccc(-c3cn(C)c4ncnc(N)c34)c2F)cc1Br [cmpd 87, N-[3-(4-Amino-7-methyl-7H-pyrrolo[2,3-d]pyrimidin-5-yl)-2-fluoro-phenyl]-3-bromo-4-methoxy-benzenesulfonamide] | – | AA (7.8 ≤ pIC50) |
| COc1ccc(S(=O)(=O)Nc2cccc(-c3cn(C4CCN(C5CC5)CC4)c4ncnc(N)c34)c2F)cc1Cl [cmpd 5, N-{3-[4-Amino-7-(1-cyclopropyl-piperidin-4-yl)-7H-pyrrolo[2,3-d]pyrimidin-5-yl]-2-fluoro-phenyl}-3-chloro-4-methoxy-benzenesulfonamide] | 15.8 to 50.1 | – |
| COc1ccc(S(=O)(=O)Nc2cccc(-c3cn(C)c4ncnc(N)c34)c2F)cn1 [cmpd 81, 6-Methoxy-pyridine-3-sulfonic acid [3-(4-amino-7-methyl-7H-pyrrolo[2,3-d]pyrimidin-5-yl)-2-fluoro-phenyl]-amide] | 50.1 to 158 | – |
| COc1c(C)cc(S(=O)(=O)Nc2cccc(-c3cn(C)c4ncnc(N)c34)c2F)cc1C [cmpd 29, N-[3-(4-Amino-7-methyl-7H-pyrrolo[2,3-d]pyrimidin-5-yl)-2-fluoro-phenyl]-4-methoxy-3,5-dimethyl-benzenesulfonamide] | 15.8 to 50.1 | – |
| COc1ccc(S(=O)(=O)Nc2cccc(-c3cn(C4CCN(C(C)C)CC4)c4ncnc(N)c34)c2F)cc1Cl [cmpd 6, N-{3-[4-Amino-7-(1-isopropyl-piperidin-4-yl)-7H-pyrrolo[2,3-d]pyrimidin-5-yl]-2-fluoro-phenyl}-3-chloro-4-methoxy-benzenesulfonamide] | – | AA (7.8 ≤ pIC50) |
| Cn1cc(-c2cccc(NS(=O)(=O)c3cccc(Cl)c3)c2F)c2c(N)ncnc21 [cmpd 13, N-[3-(4-Amino-7-methyl-7H-pyrrolo[2,3-d]pyrimidin-5-yl)-2-fluoro-phenyl]-3-chloro-benzenesulfonamide] | – | AA (7.8 ≤ pIC50) |
| Cn1cc(-c2cccc(NS(=O)(=O)c3cc(Cl)cc(Cl)c3)c2F)c2c(N)ncnc21 [cmpd 26, N-[2-(4-Amino-7-methyl-7H-pyrrolo[2,3-d]pyrimidin-5-yl)-2-fluoro-phenyl]-3,5-dichloro-benzenesulfonamide] | 15.8 to 50.1 | – |
| Cn1cc(-c2cccc(NS(=O)(=O)c3ccc(Br)c(C(F)(F)F)c3)c2F)c2c(N)ncnc21 [cmpd 51, N-[3-(4-Amino-7-methyl-7H-pyrrolo[2,3-d]pyrimidin-5-yl)-2-fluoro-phenyl]-4-bromo-3-trifluoromethyl-benzenesulfonamide] | 15.8 to 50.1 | – |
| COc1ccc(S(=O)(=O)Nc2cccc(-c3cn(C)c4ncnc(N)c34)c2F)cc1C#N [cmpd 86, N-[3-(4-Amino-7-methyl-7H-pyrrolo[2,3-d]pyrimidin-5-yl)-2-fluoro-phenyl]-3-cyano-4-methoxy-benzenesulfonamide] | 15.8 to 50.1 | – |
| COc1ccc(S(=O)(=O)Nc2cccc(-c3nn(C)c4ncnc(N)c34)c2F)cc1Cl [cmpd 35, N-[3-(4-Amino-1-methyl-1H-pyrazolo[3,4-d]pyrimidin-3-yl)-2-fluoro-phenyl]-3-chloro-4-methoxy-benzenesulfonamide] | – | AA (7.8 ≤ pIC50) |
| Cn1cc(-c2cccc(NS(=O)(=O)c3cc(F)c(Br)cc3F)c2F)c2c(N)ncnc21 [cmpd 46, N-[3-(4-Amino-7-methyl-7H-pyrrolo[2,3-d]pyrimidin-5-yl)-2-fluoro-phenyl]-4-bromo-2,5-difluoro-benzenesulfonamide] | – | AA (7.8 ≤ pIC50) |
| COc1ccc(S(=O)(=O)Nc2cccc(-c3cn(C)c4ncnc(N)c34)c2F)cc1 [cmpd 14, N-[3-(4-Amino-7-methyl-7H-pyrrolo[2,3-d]pyrimidin-5-yl)-2-fluoro-phenyl]-4-methoxy-benzenesulfonamide] | 50.1 to 158 | – |
| COc1cc(F)c(S(=O)(=O)Nc2cccc(-c3csc4ccnc(N)c34)c2F)cc1Cl [cmpd 59, N-[3-(4-Amino-thieno[3,2-c]pyridin-3-yl)-2-fluoro-phenyl]-5-chloro-2-fluoro-4-methoxy-benzenesulfonamide] | 50.1 to 158 | – |
| COc1ccc(S(=O)(=O)Nc2cccc(-c3cn(C)c4ncnc(N)c34)c2F)cc1Cl [cmpd 1, N-[3-(4-Amino-7-methyl-7H-pyrrolo[2,3-d]pyrimidin-5-yl)-2-fluoro-phenyl]-3-chloro-4-methoxy-benzenesulfonamide] | – | A (7.3 ≤ pIC50 < 7.8) |
| COc1cc(F)c(S(=O)(=O)Nc2cccc(-c3cn(C)c4ncnc(N)c34)c2F)cc1C [cmpd 44, N-[3-(4-Amino-7-methyl-7H-pyrrolo[2,3-d]pyrimidin-5-yl)-2-fluoro-phenyl]-2-fluoro-4-methoxy-5-methyl-benzenesulfonamide] | – | AA (7.8 ≤ pIC50) |
| Cn1cc(-c2cccc(NS(=O)(=O)c3ccc(Br)s3)c2F)c2c(N)ncnc21 [cmpd 48, 5-Bromo-thiophene-2-sulfonic acid [3-(4-amino-7-methyl-7H-pyrrolo[2,3-d]pyrimidin-5-yl)-2-fluoro-phenyl]-amide] | 15.8 to 50.1 | – |
| COc1ccc(S(=O)(=O)Nc2cccc(-c3cn(C4CCOCC4)c4ncnc(N)c34)c2F)cc1C [cmpd 36, N-{3-[4-Amino-7-(tetrahydro-pyran-4-yl)-7H-pyrrolo[2,3-d]pyrimidin-5-yl]-2-fluoro-phenyl}-4-methoxy-3-methyl-benzenesulfonamide] | 15.8 to 50.1 | – |
| COc1ccc(S(=O)(=O)Nc2cccc(-c3cn(C4CCNCC4)c4ncnc(N)c34)c2F)cc1C [cmpd 64, N-[3-(4-Amino-7-piperidin-4-yl-7H-pyrrolo[2,3-d]pyrimidin-5-yl)-2-fluoro-phenyl]-4-methoxy-3-methyl-benzenesulfonamide] | 15.8 to 50.1 | – |
